Activity calls are given as the source filed them. The calls are words filed in the database; no cut-off is given here.
How the values were obtained:
CT26 [1] = experiment: Antitumor activity against mouse CT26 cells implanted in immunodeficient Balb/c mouse assessed as inhibition of tumor growth at 25 mg/kg, IG twice daily measured after 10 days relative to control; assay type: functional; details: CT26, po, 240 h, time 10 day, read-out: TGI
[2] = target: Poly [ADP-ribose] polymerase 2 (Homo sapiens, UniProt Q9UGN5); experiment: Inhibition of PARP2 (unknown origin) measured after 1 hr incubation by microplate reader assay
[3] = AUC (0 to infinity) in ICR mouse at 1 mg/kg, iv measured upto 24 hrs by LC-MS/MS analysis; assay type: ADME, organism-based; details: in vivo
[4] = Acute toxicity in ICR mouse assessed as change in body weight at 500 mg/kg, po measured after 7 days; assay type: organism-based; details: in vivo, 168 h, time 7 day
CT26 [5] = experiment: Antitumor activity against mouse CT26 cells implanted in Balb/c mouse assessed as increase in infiltration CD8 positive T cells in tumors at 25 mg/kg, IG measured after 14 days by flow cytometry; assay type: functional, organism-based; details: time 14.0 day
[6] = target: Protein mono-ADP-ribosyltransferase PARP14 (Homo sapiens, UniProt Q460N5); experiment: Inhibition of PARP14 (unknown origin) measured after 1 hr incubation by microplate reader assay
[7] = target: T1, Protein mono-ADP-ribosyltransferase PARP12 (Homo sapiens, UniProt Q9H0J9); experiment: Inhibition of PARP12 (unknown origin) measured after 1 hr incubation by microplate reader assay
T1 sequence (Q9H0J9 whole entry): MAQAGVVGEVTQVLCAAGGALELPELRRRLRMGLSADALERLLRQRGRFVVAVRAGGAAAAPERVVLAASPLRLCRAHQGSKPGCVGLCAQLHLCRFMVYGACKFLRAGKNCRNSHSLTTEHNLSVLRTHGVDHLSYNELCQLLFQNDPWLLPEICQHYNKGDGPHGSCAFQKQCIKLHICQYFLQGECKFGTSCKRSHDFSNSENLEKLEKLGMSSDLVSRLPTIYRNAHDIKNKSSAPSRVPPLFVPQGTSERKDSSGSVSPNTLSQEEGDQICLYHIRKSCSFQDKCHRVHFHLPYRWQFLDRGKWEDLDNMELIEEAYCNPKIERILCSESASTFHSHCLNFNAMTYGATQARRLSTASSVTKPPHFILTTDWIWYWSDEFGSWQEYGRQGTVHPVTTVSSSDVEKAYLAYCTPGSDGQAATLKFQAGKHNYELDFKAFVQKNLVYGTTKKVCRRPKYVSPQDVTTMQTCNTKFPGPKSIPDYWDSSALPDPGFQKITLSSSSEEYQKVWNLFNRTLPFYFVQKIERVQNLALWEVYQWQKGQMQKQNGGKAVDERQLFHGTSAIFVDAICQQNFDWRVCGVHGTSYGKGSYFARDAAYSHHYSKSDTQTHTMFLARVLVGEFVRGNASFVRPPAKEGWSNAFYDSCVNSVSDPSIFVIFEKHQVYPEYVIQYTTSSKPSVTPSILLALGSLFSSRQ

[8] = target: T2, Poly [ADP-ribose] polymerase tankyrase-1 (Homo sapiens, UniProt O95271); experiment: Inhibition of TNKS1 (unknown origin) measured after 1 hr incubation by microplate reader assay
T2 sequence (O95271 whole entry): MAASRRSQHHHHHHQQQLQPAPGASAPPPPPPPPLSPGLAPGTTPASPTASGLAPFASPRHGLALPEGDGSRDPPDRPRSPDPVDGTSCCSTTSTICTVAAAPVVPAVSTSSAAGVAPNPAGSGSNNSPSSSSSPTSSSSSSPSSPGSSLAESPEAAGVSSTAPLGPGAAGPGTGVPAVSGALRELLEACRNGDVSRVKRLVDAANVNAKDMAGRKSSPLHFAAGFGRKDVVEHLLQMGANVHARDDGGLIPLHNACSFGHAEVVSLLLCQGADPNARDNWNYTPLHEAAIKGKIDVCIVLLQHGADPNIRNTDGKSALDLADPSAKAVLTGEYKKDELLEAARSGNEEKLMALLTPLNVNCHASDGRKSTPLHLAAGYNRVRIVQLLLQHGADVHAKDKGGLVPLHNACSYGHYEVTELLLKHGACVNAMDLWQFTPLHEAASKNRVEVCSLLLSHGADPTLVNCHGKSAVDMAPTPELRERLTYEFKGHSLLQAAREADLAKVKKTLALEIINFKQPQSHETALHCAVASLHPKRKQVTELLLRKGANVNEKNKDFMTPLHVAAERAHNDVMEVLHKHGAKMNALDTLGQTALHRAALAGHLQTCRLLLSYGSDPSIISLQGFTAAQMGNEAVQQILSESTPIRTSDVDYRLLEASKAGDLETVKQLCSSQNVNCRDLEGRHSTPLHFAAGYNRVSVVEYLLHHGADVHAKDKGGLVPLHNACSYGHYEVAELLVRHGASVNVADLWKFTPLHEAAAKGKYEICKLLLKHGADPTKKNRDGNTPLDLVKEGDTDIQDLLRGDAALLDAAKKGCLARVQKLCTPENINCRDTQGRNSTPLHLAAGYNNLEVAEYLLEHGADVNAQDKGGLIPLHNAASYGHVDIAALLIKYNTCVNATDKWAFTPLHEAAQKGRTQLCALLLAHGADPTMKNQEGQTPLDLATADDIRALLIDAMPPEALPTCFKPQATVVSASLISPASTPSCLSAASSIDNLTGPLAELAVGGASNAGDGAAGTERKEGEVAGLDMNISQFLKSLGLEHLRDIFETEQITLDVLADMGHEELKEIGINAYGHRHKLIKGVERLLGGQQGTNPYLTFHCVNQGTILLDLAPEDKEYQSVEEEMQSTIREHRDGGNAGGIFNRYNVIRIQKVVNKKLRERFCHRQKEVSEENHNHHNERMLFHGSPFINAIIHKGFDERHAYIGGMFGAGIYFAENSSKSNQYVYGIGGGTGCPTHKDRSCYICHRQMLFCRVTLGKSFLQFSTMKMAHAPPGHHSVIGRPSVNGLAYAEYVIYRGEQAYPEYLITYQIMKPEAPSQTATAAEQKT

CT26 [9] = experiment: Antitumor activity against mouse CT26 cells implanted in Balb/c mouse assessed as increase in infiltration of CD3 positive CD4 positive T lymphocytes in tumors at 25 mg/kg, IG measured after 14 days by flow cytometry; assay type: functional, organism-based; details: time 14.0 day
[10] = Half life in ICR mouse at 1 mg/kg, iv measured upto 24 hrs by LC-MS/MS analysis; assay type: ADME, organism-based; details: in vivo
[11] = Toxicity in Balb/c mouse bearing mouse CT26 cells assessed as morphological changes in spleen at 6.25 to 25 mg/kg, IG measured after 14 days by hematoxylin and eosin staining based assay; assay type: organism-based; details: in vivo, po, 336 h, dose 6.25-25 mg/kg, time 14 day
[12] = Toxicity in Balb/c mouse bearing mouse CT26 cells assessed as morphological changes in kidney at 6.25 to 25 mg/kg, IG measured after 14 days by hematoxylin and eosin staining based assay; assay type: organism-based; details: in vivo, po, 336 h, dose 6.25-25 mg/kg, time 14 day
[13] = Toxicity in Balb/c mouse bearing mouse CT26 cells assessed as morphological changes in liver at 6.25 to 25 mg/kg, IG measured after 14 days by hematoxylin and eosin staining based assay; assay type: organism-based; details: in vivo, po, 336 h, dose 6.25-25 mg/kg, time 14 day

Chain of Protein mono-ADP-ribosyltransferase PARP14 (Q460N5 whole entry): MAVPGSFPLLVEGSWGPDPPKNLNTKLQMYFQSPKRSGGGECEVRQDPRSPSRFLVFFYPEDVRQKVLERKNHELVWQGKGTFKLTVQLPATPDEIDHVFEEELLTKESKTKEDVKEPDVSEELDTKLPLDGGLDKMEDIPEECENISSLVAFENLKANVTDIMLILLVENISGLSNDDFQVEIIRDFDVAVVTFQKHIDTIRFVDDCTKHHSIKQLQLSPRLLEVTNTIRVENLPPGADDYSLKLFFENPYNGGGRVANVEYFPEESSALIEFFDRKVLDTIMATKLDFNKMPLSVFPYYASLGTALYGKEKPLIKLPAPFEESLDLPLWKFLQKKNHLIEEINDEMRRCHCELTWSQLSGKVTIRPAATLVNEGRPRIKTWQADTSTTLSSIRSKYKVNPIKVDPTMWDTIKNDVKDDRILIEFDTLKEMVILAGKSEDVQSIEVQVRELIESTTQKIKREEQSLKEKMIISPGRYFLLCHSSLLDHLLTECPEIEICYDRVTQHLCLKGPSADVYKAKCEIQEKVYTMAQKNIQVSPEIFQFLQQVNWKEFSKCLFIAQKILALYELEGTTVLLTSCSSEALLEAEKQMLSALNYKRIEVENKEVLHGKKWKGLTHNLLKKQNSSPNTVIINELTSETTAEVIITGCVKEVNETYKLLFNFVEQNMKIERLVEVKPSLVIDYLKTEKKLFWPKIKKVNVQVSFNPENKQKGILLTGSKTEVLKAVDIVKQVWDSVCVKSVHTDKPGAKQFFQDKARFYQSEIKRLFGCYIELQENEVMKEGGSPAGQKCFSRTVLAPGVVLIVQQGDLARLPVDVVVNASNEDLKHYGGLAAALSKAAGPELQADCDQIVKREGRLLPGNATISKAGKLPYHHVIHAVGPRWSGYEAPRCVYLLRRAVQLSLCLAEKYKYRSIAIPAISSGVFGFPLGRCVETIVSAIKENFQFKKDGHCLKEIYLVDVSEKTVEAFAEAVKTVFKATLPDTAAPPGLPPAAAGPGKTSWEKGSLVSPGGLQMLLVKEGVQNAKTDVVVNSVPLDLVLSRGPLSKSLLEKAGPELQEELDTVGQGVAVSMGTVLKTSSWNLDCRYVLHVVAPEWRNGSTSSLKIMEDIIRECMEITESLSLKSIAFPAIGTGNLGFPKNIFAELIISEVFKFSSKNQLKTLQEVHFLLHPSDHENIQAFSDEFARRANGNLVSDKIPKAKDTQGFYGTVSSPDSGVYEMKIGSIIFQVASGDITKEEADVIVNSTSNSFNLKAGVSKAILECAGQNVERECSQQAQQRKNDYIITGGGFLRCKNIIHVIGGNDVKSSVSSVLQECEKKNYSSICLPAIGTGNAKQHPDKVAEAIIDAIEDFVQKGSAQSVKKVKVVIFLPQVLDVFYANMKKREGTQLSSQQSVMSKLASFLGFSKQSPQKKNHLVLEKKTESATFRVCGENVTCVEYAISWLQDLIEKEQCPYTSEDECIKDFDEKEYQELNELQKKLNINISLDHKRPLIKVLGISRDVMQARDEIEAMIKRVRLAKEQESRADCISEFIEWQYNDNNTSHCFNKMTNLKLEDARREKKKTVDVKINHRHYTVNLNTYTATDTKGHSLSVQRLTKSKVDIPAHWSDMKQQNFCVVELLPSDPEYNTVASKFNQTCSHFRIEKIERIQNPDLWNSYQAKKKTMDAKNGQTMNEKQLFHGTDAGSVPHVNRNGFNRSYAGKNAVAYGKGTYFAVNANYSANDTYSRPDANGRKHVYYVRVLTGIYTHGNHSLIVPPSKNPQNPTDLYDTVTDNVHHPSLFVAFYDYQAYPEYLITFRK
Chain of Poly [ADP-ribose] polymerase 2 (Q9UGN5 whole entry): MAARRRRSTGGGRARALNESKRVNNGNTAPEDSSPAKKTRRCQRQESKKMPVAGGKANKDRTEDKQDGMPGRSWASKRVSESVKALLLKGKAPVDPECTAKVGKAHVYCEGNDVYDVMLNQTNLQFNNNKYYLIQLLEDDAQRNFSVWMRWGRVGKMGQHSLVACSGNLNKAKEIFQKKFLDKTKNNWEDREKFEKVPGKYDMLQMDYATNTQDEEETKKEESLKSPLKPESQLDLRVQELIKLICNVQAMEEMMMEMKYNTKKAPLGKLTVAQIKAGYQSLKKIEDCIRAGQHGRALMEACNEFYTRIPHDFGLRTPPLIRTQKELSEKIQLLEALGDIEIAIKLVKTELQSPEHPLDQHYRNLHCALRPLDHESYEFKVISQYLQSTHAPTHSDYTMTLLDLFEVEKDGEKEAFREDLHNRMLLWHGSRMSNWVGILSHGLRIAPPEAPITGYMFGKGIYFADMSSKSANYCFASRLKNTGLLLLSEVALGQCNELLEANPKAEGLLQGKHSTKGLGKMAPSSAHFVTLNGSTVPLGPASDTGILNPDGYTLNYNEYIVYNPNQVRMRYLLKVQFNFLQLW

Question: Which inhibition in vivo at 25 mg/kg (CT26 [1]) does the source give for `C[C@@H](C(=O)N1CCN(c2ncc(C(F)(F)F)cn2)CC1)n1cc2cccc(C(N)=O)c2n1` here?
Answer: The inhibition in vivo at 25 mg/kg was 4%.

Question: And the IC50 [2]?
Answer: The IC50 was 303 nM.

Question: And the AUC(0-inf) [3]?
Answer: Its AUC(0-inf) is 1800 ng·h/mL.

Question: What about the Activity [4] of the same compound?
Answer: Its Activity is “Non-Toxic”.

Question: What about the Activity (CT26 [5]) of the same compound?
Answer: Its Activity is “Active”.

Question: And the IC50 [6]?
Answer: The IC50 was > 1300 nM.

Question: And the IC50 [7]?
Answer: Its IC50 is 664 nM.

Question: What about the IC50 [8] of the same compound?
Answer: The IC50 was 901 nM.

Question: And the Activity (CT26 [9])?
Answer: The Activity was “Active”.

Question: What about the half-life [10] of the same compound?
Answer: The half-life was 1.22 h.

Question: What about the Activity [11] of the same compound?
Answer: Its Activity is “Non-Toxic”.

Question: And the Activity [12]?
Answer: The Activity was “Non-Toxic”.

Question: What about the Activity [13] of the same compound?
Answer: The Activity was “Non-Toxic”.

Source: ChEMBL document CHEMBL5537136 (J Med Chem, 2024)
